Literature values, collected in patent US11179350B2, “Nutraceutical compositions comprising C60 and Cox-2 inhibitor” (priority 2018, dated 2021).

Legend:
[1] = test system: tumor growth and metastasis; settings: Prylutska et al. 2011
[2] = test system: rats; settings: repeated oral administration (Baati et al. 2012)
[3] = test system: mice; settings: mice (Quick et al. 2008)
[4] = more potent than Vitamin C

For c12c3c4c5c1c1c6c7c2c2c8c3c3c9c4c4c%10c5c5c1c1c6c6c%11c7c2c2c7c8c3c3c8c9c4c4c9c%10c5c5c1c1c6c6c%11c2c2c7c3c3c8c4c4c9c5c1c1c6c2c3c41 [C60, Buckminsterfullerene], the “tumor growth and metastasis” value [1] is listed as “inhibit tumor growth and metastasis”, the prolongation of life [2] is listed as “prolong life” and the prolongation of life [3] is listed as “prolong life”. For the same compound, the “antioxidant potency relative to Vitamin C” value [4] was 172 times.
